PubChem BioAssay AID330 (DTP/NCI, 2004)
Values joined by “and” are separate entries in the source; they are usually repeats but may differ in a detail not shown here. Equal entries are not always repeated. Inconclusive results and toxic doses are left out. The calls were made as follows: active = survival T/C of 150% or more; inactive = T/C below 125% in these data. Peptide text beside a SMILES is read from it.

Test system: P388 leukemia ip, CD2F1 mice, survival T/C
Assay: NCI In Vivo Anticancer Drug Screen. Data for tumor model P388 Leukemia (intraperitoneal) in CD2F1 (CDF1) mice
Details: endpoint: median survival time, higher = longer survival
How it was run: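 Mice carrying the transplanted tumor received test compound or vehicle. Survival was recorded in each group, and the value is the treated-group measurement divided by that of the vehicle-treated control group.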

[1] = dose: 50.0 mg/kg/injection, schedule: Q01DX005 (ip), vehicle: saline with Tween-80
[2] = dose: 100.0 mg/kg/injection, schedule: Q01DX005 (ip), vehicle: saline with Tween-80
[3] = dose: 200.0 mg/kg/injection, schedule: Q01DX005 (ip), vehicle: saline with Tween-80
[4] = dose: 50.0 mg/kg/injection, schedule: Q01DX005 (ip), vehicle: Klucel (hydroxypropylcellulose) (HPC)
[5] = dose: 100.0 mg/kg/injection, schedule: Q01DX005 (ip), vehicle: Klucel (hydroxypropylcellulose) (HPC)
[6] = dose: 200.0 mg/kg/injection, schedule: Q01DX005 (ip), vehicle: Klucel (hydroxypropylcellulose) (HPC)
[7] = dose: 12.5 mg/kg/injection, schedule: Q01DX005 (ip), vehicle: Klucel (hydroxypropylcellulose) (HPC)
[8] = dose: 25.0 mg/kg/injection, schedule: Q01DX005 (ip), vehicle: Klucel (hydroxypropylcellulose) (HPC)
[9] = dose: 50.0 mg/kg/injection, schedule: Q01DX009 (ip), vehicle: saline with Tween-80
[10] = dose: 100.0 mg/kg/injection, schedule: Q01DX009 (ip), vehicle: saline with Tween-80
[11] = dose: 200.0 mg/kg/injection, schedule: Q01DX009 (ip), vehicle: saline with Tween-80
[12] = dose: 50.0 mg/kg/injection, schedule: Q01DX009 (ip), vehicle: Klucel (hydroxypropylcellulose) (HPC)
[13] = dose: 100.0 mg/kg/injection, schedule: Q01DX009 (ip), vehicle: Klucel (hydroxypropylcellulose) (HPC)
[14] = dose: 50.0 mg/kg/injection, schedule: Q01DX009 (ip), vehicle: saline
[15] = dose: 100.0 mg/kg/injection, schedule: Q01DX009 (ip), vehicle: saline

Measured: T/C

C=CCC1(C(C)C(O)c2cc(OC)c(OC)c(OC)c2)CC(O)C=CC12OCCO2 (stereo not given)
inactive: dose: 1.25 mg/kg/injection, schedule: Q01DX005 (ip), vehicle: acid diluted with saline 94 % of control | dose: 2.5 mg/kg/injection, schedule: Q01DX005 (ip), vehicle: acid diluted with saline 103 % of control | dose: 5.0 mg/kg/injection, schedule: Q01DX005 (ip), vehicle: acid diluted with saline 100 % of control | dose: 10.0 mg/kg/injection, schedule: Q01DX005 (ip), vehicle: acid diluted with saline 100 % of control

CC(C)C(N)C(=O)NCC(=O)NC(CO)C(=O)NC(CCC(=O)O)C(=O)O (stereo not given) (H-VGSE-OH; configuration not given here)
inactive: dose: 10.0 mg/kg/injection, schedule: Q01DX005 (ip), vehicle: water 100 % of control | dose: 20.0 mg/kg/injection, schedule: Q01DX005 (ip), vehicle: water 102 % of control | dose: 40.0 mg/kg/injection, schedule: Q01DX005 (ip), vehicle: water 100 % of control | dose: 80.0 mg/kg/injection, schedule: Q01DX005 (ip), vehicle: water 97 % of control | dose: 160.0 mg/kg/injection, schedule: Q01DX005 (ip), vehicle: water 104 % of control

CC(C)CC(NC(=O)C(Cc1cnc[nH]1)N(C(=O)OCc1ccccc1)C(=O)OCc1ccccc1)C(=O)NN (stereo not given)
inactive: [1] 101 % of control | [2] 106 % of control | [3] 106 % of control

O=C(O)c1cc(=O)cc(-c2ccccc2)o1
inactive: [4] 98 % of control | [5] 97 % of control | [6] 101 % of control

NC(=O)NC1CCCC1
inactive: dose: 100.0 mg/kg/injection, schedule: Q04DX003 (ip), vehicle: saline with Tween-80 100 % of control | dose: 200.0 mg/kg/injection, schedule: Q04DX003 (ip), vehicle: saline with Tween-80 100 % of control | dose: 400.0 mg/kg/injection, schedule: Q04DX003 (ip), vehicle: saline with Tween-80 100 % of control

O=C(O)CCCc1ccc2ccc3cccc4ccc1c2c34
inactive: [1] 102 % of control | [2] 98 % of control | [3] 100 % of control

CCCNc1ccnc(F)n1
inactive: [7] 100 % of control | [8] 102 % of control | [4] 106 % of control | [5] 105 % of control

CC(=O)Nc1c(I)c(C(=O)NC2C(O)OC(CO)C(O)C2O)c(I)c(N(C)C(C)=O)c1I (stereo not given)
inactive: dose: 60.0 mg/kg/injection, schedule: Q01DX005 (ip), vehicle: saline 100 % of control | dose: 120.0 mg/kg/injection, schedule: Q01DX005 (ip), vehicle: saline 100 % of control | dose: 240.0 mg/kg/injection, schedule: Q01DX005 (ip), vehicle: saline 107 % of control

COC(=O)C1=C(C(=O)OC)CC1
inactive: [9] 109 % of control | [10] 109 % of control | [11] 117 % of control

CCCCCC(=O)c1c(-c2ccc(C)cc2)cc(O)c(CCCC)c1-c1ccc(C)cc1
inactive: dose: 25.0 mg/kg/injection, schedule: Q01DX005 (ip), vehicle: saline with Tween-80 108 % of control | [1] 97 % of control | [2] 104 % of control

Cn1c(=O)oc2cc(NC(N)=O)c(Cl)cc21
inactive: [4] 94 % of control | [5] 90 % of control | [6] 86 % of control

O=NN(C(=O)NC1CC1)C1CC1
inactive: dose: 25.0 mg/kg/injection, schedule: Q01DX001 (ip), vehicle: water 111 % of control | dose: 50.0 mg/kg/injection, schedule: Q01DX001 (ip), vehicle: water 102 % of control | dose: 100.0 mg/kg/injection, schedule: Q01DX001 (ip), vehicle: water 109 % of control

O=C1CCC2CCc3ccccc3N12 (stereo not given)
inactive: dose: 100.0 mg/kg/injection, schedule: Q04DX002 (ip), vehicle: other 102 % of control | dose: 200.0 mg/kg/injection, schedule: Q04DX002 (ip), vehicle: other 96 % of control | dose: 400.0 mg/kg/injection, schedule: Q04DX002 (ip), vehicle: other 103 % of control

O=S(=O)(O)O.[Cu+2].[NH-]CCC[N-]CCCC[N-]CCC[NH-]
inactive: dose: 6.25 mg/kg/injection, schedule: Q01DX001 (ip), vehicle: saline 108 % of control | dose: 12.5 mg/kg/injection, schedule: Q01DX001 (ip), vehicle: saline 113 % of control and 92 % of control | dose: 25.0 mg/kg/injection, schedule: Q01DX001 (ip), vehicle: saline 113 % of control | dose: 50.0 mg/kg/injection, schedule: Q01DX001 (ip), vehicle: saline 106 % of control

Cc1cccc(/N=C/c2ccccc2O)n1
inactive: [12] 91 % of control | [13] 86 % of control

O=C(/C=C/c1ccccc1)OCC1=C[C@@H](O)[C@@H]2C=CO[C@@H](OC3OC(CO)C(O)C(O)C3O)[C@H]12 (stereo not given in full)
inactive: [7] 100 % of control | [8] 93 % of control | [4] 112 % of control | [5] 118 % of control | [6] 115 % of control

CCCCCCC(/C=C/c1ccc(Cl)c(Cl)c1)=N\NC(=O)C(N)=O
inactive: [14] 101 % of control | [15] 101 % of control | dose: 200.0 mg/kg/injection, schedule: Q01DX009 (ip), vehicle: saline 110 % of control

C#CC[N+]12CN3CN(CN(C3)C1)C2
inactive: dose: 12.5 mg/kg/injection, schedule: Q01DX009 (ip), vehicle: saline 98 % of control | dose: 25.0 mg/kg/injection, schedule: Q01DX009 (ip), vehicle: saline 99 % of control | [14] 99 % of control | [15] 116 % of control

CCCCCCCCCCCC1NC(=S)NC(=O)C1C#N (stereo not given)
inactive: [12] 95 % of control | [13] 93 % of control | dose: 200.0 mg/kg/injection, schedule: Q01DX009 (ip), vehicle: Klucel (hydroxypropylcellulose) (HPC) 92 % of control

CC(C)OC(=O)C#N
inactive: dose: 1.56 mg/kg/injection, schedule: Q01DX005 (ip), vehicle: saline with Tween-80 100 % of control | dose: 3.12 mg/kg/injection, schedule: Q01DX005 (ip), vehicle: saline with Tween-80 101 % of control | dose: 6.25 mg/kg/injection, schedule: Q01DX005 (ip), vehicle: saline with Tween-80 100 % of control | dose: 12.5 mg/kg/injection, schedule: Q01DX005 (ip), vehicle: saline with Tween-80 98 % of control

COc1cc(NC(C)CCCN)c2ncccc2c1 (stereo not given)
inactive: dose: 12.5 mg/kg/injection, schedule: Q01DX009 (ip), vehicle: saline sonified 118 % of control | dose: 25.0 mg/kg/injection, schedule: Q01DX009 (ip), vehicle: saline sonified 109 % of control | dose: 50.0 mg/kg/injection, schedule: Q01DX009 (ip), vehicle: saline sonified 90 % of control

CC(C)[Si]1(C(C)C)N[Si](C(C)C)(C(C)C)N[Si](C(C)C)(C(C)C)N1
inactive: dose: 60.0 mg/kg/injection, schedule: Q01DX005 (ip), vehicle: Klucel (hydroxypropylcellulose) (HPC) 108 % of control | dose: 120.0 mg/kg/injection, schedule: Q01DX005 (ip), vehicle: Klucel (hydroxypropylcellulose) (HPC) 93 % of control | dose: 240.0 mg/kg/injection, schedule: Q01DX005 (ip), vehicle: Klucel (hydroxypropylcellulose) (HPC) 100 % of control

O=C(CC([Se]c1ccccc1)c1ccccc1)c1ccccc1 (stereo not given)
inactive: [9] 109 % of control | [10] 109 % of control | [11] 95 % of control

O=C(Nc1ccccc1C(=O)O)c1cc([N+](=O)[O-])cc([N+](=O)[O-])c1
inactive: dose: 25.0 mg/kg/injection, schedule: Q01DX009 (ip), vehicle: saline with Tween-80 114 % of control | [9] 113 % of control | [10] 109 % of control
